# Experimental data reported in PMC5508973 (ChemMedChem, 2017).
# Experiments:
# U937 = test: cells; format: cell-based; details: Homo sapiens, U-937, 24 h
# MM.1S = test: cells; format: cell-based; details: Homo sapiens, MM1.S, 24 h
# MM.1R = test: cells; format: cell-based; details: Homo sapiens, 24 h
# K562 = test: cells; format: cell-based; details: Homo sapiens, K562, 24 h
# K562/ADR = test: cells; format: cell-based; details: Homo sapiens, 24 h
# HeLa = test: cells; format: cell-based; details: Homo sapiens, 24 h
# LO2 = test: cells; format: cell-based; details: Homo sapiens, L02, 24 h
# NIH3T3 = test: cells; format: cell-based; details: Mus musculus, NIH3T3, 24 h
# [1] = test system: CBL-resistant K562 cell line; format: cell-based, Human; details: K562, 24-h incubation, Annexin-V
# [2] = test system: primary chronic lymphocytic leukemia (CLL) cells; format: cell-based, Human; details: treatment with 50 μM
# [3] = test system: 17.7 kb segment of nDNA at the b-globin gene and 8.9 kb fragment of mtDNA; test: DNA damage by PCR amplification of nDNA and mtDNA; format: cell-based; details: PCR amplification after cell treatment
# [4] = test system: peripheral blood mononuclear cells (PBMCs) from normal healthy donors; details: treatment with 50 μM
smiles,measurement,setting,value
"O=C(O)CCCc1ccc(N(CCCl)CCCl)cc1 [CBL, chlorambucil]",IC50,U937,45.7 ± 3.71 µM
same,IC50,MM.1S,47.4 ± 5.08 µM
same,IC50,MM.1R,236 ± 16.9 µM
same,IC50,K562,417 ± 27.9 µM
same,IC50,K562/ADR,> 1000 µM
same,IC50,HeLa,321 ± 33.2 µM
same,IC50,LO2,> 600 µM
same,IC50,NIH3T3,> 600 µM
same,apoptotic cell population,[1],11.24%
same,CLL cells killed,[2],32.3%
same,DNA damage in nuclear and mitochondrial genome,[3],primarily damaged nDNA with very few mitochondrial lesions
same,PBMCs killed,[4],11%
